Measured values from ChEMBL document CHEMBL1770111, “A series of structurally simple chloroquine chemosensitizing dibemethin derivatives that inhibit chloroquine transport by PfCRT” (Eur J Med Chem, 2011).
Calls of active or inactive are those of the source. No cut-off for these calls is given here.

What was measured:
Plasmodium falciparum [1] = experiment: Resistance modification index, ratio of compound IC10 to chloroquine IC50 in presence of IC10 compound for chloroquine-resistant Plasmodium falciparum W2; format: functional
Plasmodium falciparum [2] = experiment: Resistance modification index, ratio of IC50 for chloroquine in presence of compound to IC50 for chloroquine alone for chloroquine-resistant Plasmodium falciparum W2; format: functional
Plasmodium falciparum [3] = experiment: Antiplasmodial activity against chloroquine-resistant Plasmodium falciparum W2 by parasite lactate dehydrogenase assay; format: functional, organism-based
Plasmodium falciparum [4] = experiment: Inhibition of chloroquine-resistant Plasmodium falciparum […] CRT expressed in Xenopus laevis oocytes assessed as [3H]-chloroquine uptake after 1 to 2 hrs; conditions: Oocyte
Plasmodium falciparum [5] = experiment: Antiplasmodial activity against chloroquine-resistant Plasmodium falciparum W2 at 15.2 uM by parasite lactate dehydrogenase assay; format: functional, organism-based

SMILES | Ratio IC50 (Plasmodium falciparum [1]) | Ratio IC50 (Plasmodium falciparum [2]) | IC10 (Plasmodium falciparum [3]) [µM] | IC50 (Plasmodium falciparum [3]) [µM] | IC50 (Plasmodium falciparum [4]; read-out: IC50) [µM] | inhibition (Plasmodium falciparum [5]) | IC50 (Plasmodium falciparum [4]) [µM]
CN(Cc1ccc(Cl)cc1)Cc1ccc(CNC=O)cc1 | 0.46 | 0.9 | 5.4 | 29 |  |  | 
CN(Cc1ccc(CN)cc1)Cc1ccc(N(C)C)cc1 |  | 0.21 |  | 11.7 |  |  | 
CN(Cc1ccc(N(C)C)cc1)Cc1ccccc1CNC=O | 0.49 | 1 | 15 | 42 |  |  | 
CN(Cc1ccc(Cl)cc1)Cc1ccccc1CN |  | 0.096 |  | 5.7 |  |  | 
COc1ccc(CN(C)Cc2cccc(CN)c2)cc1 |  | 0.25 |  | 6.8 |  |  | 
COc1ccc(CN(C)Cc2cccc(CNC=O)c2)cc1 | 0.51 | 1.19 | 9 | 48 |  |  | 
CN(Cc1ccccc1)Cc1ccc(CN)cc1 |  | 0.24 |  | 29 |  |  | 
CN(Cc1ccccc1)Cc1cccc(CNC=O)c1 | 0.29 | 0.84 | 9.7 | 21 |  |  | 
CN(Cc1ccccc1)Cc1ccc(CNC=O)cc1 | 0.43 | 1.13 | 18 | 56 |  |  | 
COc1ccc(CN(C)Cc2ccc(CN)cc2)cc1 |  | 0.33 |  | 91 |  |  | 
CN(Cc1ccc(N(C)C)cc1)Cc1ccccc1CN |  | 0.36 |  | 37 |  |  | 
COc1ccc(CN(C)Cc2ccccc2CN)cc1 |  | 0.35 |  | > 233 |  |  | 
CN(Cc1ccc(Cl)cc1)Cc1cccc(CNC=O)c1 | 0.51 |  | 4 | 16 |  |  | 
CN(Cc1ccc(Cl)cc1)Cc1ccc(CN)cc1 |  | 0.25 |  | 63 | 140 |  | 
COc1ccc(CN(C)Cc2ccc(CNC=O)cc2)cc1 | 0.46 | 1.22 | 16 | 37 |  |  | 
CN(Cc1ccccc1)Cc1cccc(CN)c1 |  | 0.08 |  | 2.8 |  |  | 
CN(Cc1ccccc1)Cc1ccccc1CNC=O | 0.44 | 0.75 | 1.7 | 11 |  |  | 
CN(Cc1ccc(N(C)C)cc1)Cc1cccc(CNC=O)c1 | 1 | 0.62 |  | 17 |  | inactive | 
CN(Cc1ccc(CNC=O)cc1)Cc1ccc(N(C)C)cc1 | 0.46 | 1.36 | 15.2 | 33 | 657 |  | 
CN(Cc1ccccc1)Cc1ccccc1CN |  | 0.03 |  | 4.1 | 24 |  | 
CN(Cc1ccc(Cl)cc1)Cc1ccccc1CNC=O | 0.34 | 1.07 | 12 | 119 |  |  | 
CN(Cc1ccc(Cl)cc1)Cc1cccc(CN)c1 |  | 0.31 |  | 30 | 101 |  | 
CN(Cc1ccc(N(C)C)cc1)Cc1cccc(CN)c1 |  | 0.24 |  | 30 |  |  | 
COc1ccc(CN(C)Cc2ccccc2CNC=O)cc1 | 0.32 | 1.22 | 12 | 29 |  |  | 
COc1ccc(CCN(C)CCCC(C#N)(c2ccc(OC)c(OC)c2)C(C)C)cc1OC (configuration not stated) [VERAPAMIL] |  | 0.26 |  |  |  |  | 30
